Measured values taken from ChEMBL document CHEMBL5728694, “Inhibitors of hepatitis C virus replication” (2021).

Assay: Measuring Compound Inhibitory Potency: Measurement of inhibition by compounds was performed using the HCV replicon system. Several different replicons encoding different HCV genotypes or mutations were used. In addition, potency measurements were made using different formats of the replicon assay, including different ways of measurements and different plating formats. See Jan M. Vrolijk et al., A replicons-based bioassay for the measurement of interferons in patients with chronic hepatitis C, 110 J. VIROLOGICAL METHODS 201 (2003); Steven S. Carroll et al., Inhibition of Hepatitis C Virus RNA Replication by 2′-Modified Nucleoside Analogs, 278(14) J. BIOLOGICAL CHEMISTRY 11979 (2003). However, the underlying principles are common to all of these determinations, and are outlined below.Stable neomycin phosphotransferase encoding replicon-harboring cell lines were used, so all cell lines were maintained under G418 selection prior to the assay. In some cases, the cell lines encoded a luciferase:Neor fusion and could be assayed either directly by determination of RNA copy number, or indirectly through measurement of the luciferase activity.To initiate an assay, replicon cells were plated in the presence of a dilution series of test compound in the absence of G418. Typically, the assays were performed in a 96-well plate format for manual operation, or a 384-well plate in an automated assay. […]

Q: For `COC(=O)N[C@H](C(=O)N1CCC[C@H]1c1ncc(-c2ccc3oc(-c4ccc(-c5cnc([C@@H]6CCCN6C(=O)[C@@H](NC(=O)OC)C(C)C)[nH]5)c(F)c4)cc3c2)[nH]1)C(C)C`, which EC50 is on record?
A: 4 pM
